Laboratory results as given in article PMC9740702, “Binding and Detoxification of Insecticides by Potentially Probiotic Lactic Acid Bacteria Isolated from Honeybee (Apis mellifera L.) Environment—An In Vitro Study” (Cells, 2022).

Legend:
[1] = tested on: cat (Felis catus) fibroblast cells; details: cited from earlier work
[2] = tested on: prostate epithelial WPM-Y1 cell line; set-up: method as in PMID 33456462; details: 24 h, MTT assay; read-out: median inhibition value; cited from earlier work
P. acidilactici 8/1 = experiment: Effect of pesticides on the growth of LAB (microtitration assay); type: cell-based, Pediococcus acidilactici; details: 100 µg/mL, 48 h incubation, versus non-exposed cells
Method: (§1) The experiments were conducted in transparent 96-well polystyrene microplates. The final concentrations of tested pesticides were 20, 100, and 500 µg/mL. Each well was inoculated with an overnight culture of an individual LAB strain at the density of 1.8–2.4 × 10^9 CFU/mL (6.0–8.0 according to McFarland standard). Each strain was tested in 4 replicates. Negative controls were non-exposed bacterial cells in MRS or MRS-F broth. The test was performed at 30 or 37 °C for 48 h.

LAB strains [3] = experiment: Binding of pesticides to the cell wall of LAB (extent of binding); details: whole live LAB cells, initial 100 µg/mL, 24 h
Method: Overnight cultures of LAB in MRS/MRS-F broth were centrifuged (3864× g, 15 min), and biomass was washed with sterile ultrapure water and centrifuged again. This procedure was repeated until the MRS/MRS-F broth was completely washed. Next, the biomass of whole live LAB cells was suspended in sterile ultrapure water with an individual pesticide solution (at a final concentration of 100 µg/mL, v/v) and thoroughly mixed. The density of LAB cells was 1.8–2.4 × 10^9 CFU/mL (6.0–8.0 according to McFarland standard). The positive controls (standards) were individual pesticides without LAB strains. Negative controls were LAB strains suspended in sterile ultrapure water without pesticides. The samples were incubated anaerobically at 30 °C for 24 h with continuous orbital shaking (240 r.p.m.) (LAUDA Varioshake VS 8 OE Shaker, Dr. R. Wobser Gmbh & Co., Lauda-Königshofen, […]). Finally, the supernatants containing residual pesticide were collected by centrifugation (10,733× g, 20 min) and were filtered using sterile syringe filters (0.22 μm) and frozen in sterile vials until analysis at −20 °C.
Pesticides were analyzed according to Hafeez et al. (2015) using the HPLC-DAD technique with some modifications. For the qualitative–quantitative determination of pesticides, HPLC analysis was performed using a UHPLC+ Dionex UltiMate 3000 system (Thermo Fisher Scientific Inc., Waltham, MA, USA) equipped with a UV–Vis detector (Thermo Fisher Scientific Inc., Waltham, MA, USA) and NUCLEOSIL C18 column (4.6 × 250 mm, 5 µm particle size; Macherey-Nagel, Germany). Isocratic elution was carried out with 70/30 (v/v) acetonitrile/water as the mobile phase. The flow rate was set to 1.0 mL/min, and the column temperature was 25 °C. The injection volume was 20 µL. Detection and quantification were performed with two wavelengths: 219 nm for chlorpyrifos and coumaphos and 270 nm for imidacloprid. Quantification was performed using an external standard method. All measurements were made twice.

P. pentosaceus 14/1 = experiment: Effect of pesticides on the growth of LAB (microtitration assay); type: cell-based, Pediococcus pentosaceus; details: 48 h incubation, versus non-exposed cells
Method: as §1

LAB = tested on: LAB; set-up: method as in earlier work; details: concentrations above 2 ppm; cited from earlier work
L. plantarum ISO = tested on: L. plantarum ISO; set-up: method as in PMID 28578396; details: 295 µM, MRS medium, log phase; cited from earlier work
LAB strains [4] = tested on: LAB strains; set-up: method as in PMID 28324568; details: cited from earlier work
[5] = tested on: Enterococcus faecium E86, Lactococcus lactis subsp. lactis ATCC 11454, L. rhamnosus GG ATCC 53103, L. lactis Garvie ATCC 19256, Leuconostoc mesenteroides subsp.; set-up: method as in doi:10.1016/j.lwt.2019.02.037; details: 500 mg/L; cited from earlier work

For `CCOC(=O)CC(SP(=S)(OC)OC)C(=O)OCC` (stereo not shown) [Malathion], the “concentration at which maximum DNA damage was recorded” value [1] is given as 45 mM.
For `O=[N+]([O-])NC1=NCCN1Cc1ccc(Cl)nc1` [imidacloprid], the IC50 [2] is listed as 23 µM, the bacterial growth (P. acidilactici 8/1) is listed as 101.84% and the “pesticide binding by LAB (highest extent)” value (“pesticide binding by LAB” below) (LAB strains [3]) is listed as no more than 36%. The “pesticide binding by LAB” value (LAB strains [3]; listed as Imidacloprid) was “about 36%”.
For `CCOP(=S)(OCC)Oc1ccc2c(C)c(Cl)c(=O)oc2c1` [coumaphos], the “pesticide binding by LAB” value (LAB strains [3]) was “up to 57%” and the bacterial growth (P. pentosaceus 14/1; 500 µg/mL) was 100.6%.
In the case of `Cl[C@H]1[C@H](Cl)[C@@H](Cl)[C@@H](Cl)[C@H](Cl)[C@H]1Cl` [lindane], the “effect on lactic acid production by LAB” value (LAB) is listed as “completely inhibited”.
For `ClC1=C(Cl)C2(Cl)C3C4CC(C5OC45)C3C1(Cl)C2(Cl)Cl` (stereo not shown) [endrin], the “effect on lactic acid production by LAB” value (LAB) is given as “completely inhibited”.
In the case of `CCOP(=S)(OCC)Oc1nc(Cl)c(Cl)cc1Cl` [chlorpyrifos], the “effect on growth of L. plantarum ISO” value (L. plantarum ISO) is given as “significantly reduced the growth”, the “chlorpyrifos concentration at which some LAB strains were able to grow” value (LAB strains [4]) is given as greater than 1400 µg/mL and the “effect on growth of LAB” value [5] is given as “did not affect the growth”. It also gave a bacterial growth (P. pentosaceus 14/1; 20 µg/mL) of 99.94%.
